For orientation: solubility means the dissolved amount per volume that the medium holds.

Drawing on US6541062B2, “Water-soluble soybean extracts” (priority 1999, dated 2003), this text covers solubility for one molecule.

Converted amounts (≈) assume the structure as drawn.

Series [1] can be described thus: solubility in water (stepwise addition of water, visual inspection). The format is physicochemical. The conditions noted are these: 25 °C, thermodynamic from solid. The protocol: A clear water-soluble soybean-based extract (2 liters) obtained in the same manner as described in Example 1. The extract solution was then lyophilized using a lyophilizer manufactured by Bertis Corp for 2 days at −85° C. under 10 mm Torr, resulting in 350 g of a pale yellow dry cake. […] The solubility was tested by first adding 1 g of the dried extract into 1 ml of pure water at 25° C. with agitation for 5 min. If the extract was not completely dissolved (visual inspection), another 1 ml of water was added and the resulting mixture agitated for 5 minutes at 25° C. Next, the mixture was visually inspected to determine if the extract had completely dissolved. If not, water at 25° C. was added in 1 ml increments and agitated for 5 minutes after each addition of water until the extract was completely dissolved by visual inspection. .

Series [2] can be described thus: solubility in methanol. In kind it is physicochemical. The conditions noted are these: organic solvent or mixture, 25° C.

The molecule `O=c1c(-c2ccc(O)cc2)coc2cc(O[C@@H]3O[C@H](CO)[C@@H](O)[C@H](O)[C@H]3O)cc(O)c12` [genistin] gave a solubility at 5 min in series [1] of around 1000 µg/mL (≈ 2.31 mM). Further, the solubility in series [2] was around 5000 µg/mL (≈ 11.6 mM).
